The values below come from ChEMBL document CHEMBL1201862, “PubChem BioAssay data set” (2004).

Test systems include A498; DU-145; EKVX; HCT-15; HOP-92; K562; KM12; MDA-MB-231; MDA-N; MOLT-4; NCI-H460; OVCAR-3; OVCAR-5; SF-295; SK-MEL-2; SK-MEL-5; SN12C; SW-620; UO-31; M14.
Holding throughout (assay): NCI anticancer screen, dose series, 48 h

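Five concentrations, 48 hours, 96-well plates. Here, GI50 denotes the concentration required for 50% inhibition of growth.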 Activity calls are given as the source filed them. Cut-off read from the data, not from the text of the source: active = GI50 up to about 1.1 µM and inactive = higher. Bounds are passed on as bounds.

In the case of `COc1nc(C(Cl)(Cl)Cl)c(Cl)c(O)c1Cl`, the GI50 in the experiment with A498 was > 100 µM (inactive); with DU-145 it was > 100 µM (inactive); in the experiment with EKVX, > 100 µM (inactive); with HCT-15 it was over 100 µM; in the experiment with HOP-92, > 100 µM (inactive); in the experiment with K562, > 100 µM (inactive). In addition, the GI50 with KM12, in the experiment with MDA-MB-231, in the experiment with MDA-N, in the experiment with MOLT-4, in the experiment on NCI-H460 and in the experiment with OVCAR-3 was > 100 µM (inactive) in each case. The GI50 in the experiment with OVCAR-5, with SF-295, in the experiment on SK-MEL-2, in the experiment on SK-MEL-5, with SN12C and in the experiment with SW-620 was > 100 µM (inactive) throughout. In addition, the GI50 in the experiment with UO-31 is > 100 µM (inactive).

On to `CCC(=O)OC1CCn2c1nc1c2C(=O)C(C)=C(N2CC2)C1=O` (stereo not drawn), for which the GI50 with A498 is 0.0526 µM (active); in the experiment with DU-145, 0.00743 µM (active); with EKVX, 0.224 µM (active); in the experiment on HCT-15, 0.0275 µM; with HOP-92, 1.53 µM (inactive); with KM12 it was 0.0938 µM (active). Besides, the GI50 was 0.0698 µM (active) with M14; 1.42 µM (inactive) in the experiment on MDA-MB-231; 0.043 µM (active) in the experiment on MDA-N; 3.41 µM (inactive) with MOLT-4; 0.045 µM (active) with NCI-H460; 0.067 µM (active) with OVCAR-3. For the same compound, the GI50 in the experiment on OVCAR-5 is 0.0902 µM (active); with SF-295, 0.0728 µM (active); in the experiment with SK-MEL-2, 0.064 µM (active); in the experiment on SK-MEL-5, 0.0294 µM (active); in the experiment on SN12C, 0.0881 µM (active); in the experiment on SW-620, 0.0488 µM (active). In addition, the GI50 in the experiment with UO-31 is 0.0698 µM (active).

On to `C=C1COC(O)(C2OCOC(C3CC(=O)NC(=O)C3)C2O)C1C` (stereo not drawn), for which the GI50 was 0.0018 µM (active) with A498; 0.00361 µM (active) with DU-145; 0.00689 µM (active) in the experiment on EKVX; 0.00478 µM in the experiment with HCT-15; 0.00244 µM (active) in the experiment with HOP-92; 0.00316 µM (active) with K562. The GI50 was 0.00287 µM (active) in the experiment with KM12; 0.00442 µM (active) in the experiment with M14; 0.00847 µM (active) in the experiment with MDA-MB-231; 0.0034 µM (active) in the experiment on MDA-N; 0.0011 µM (active) with MOLT-4; 0.00413 µM (active) in the experiment with NCI-H460. The GI50 with OVCAR-3 is 0.00356 µM (active); in the experiment with OVCAR-5 it was < 0.0126 µM (active); in the experiment on SF-295, 0.00305 µM (active); in the experiment with SK-MEL-2, 0.0016 µM (active); with SK-MEL-5, 0.00126 µM (active); with SN12C, 0.00224 µM (active). Besides, the results for the GI50 in the experiment on SW-620 and in the experiment on UO-31 were 0.0043 µM (active) and 0.00105 µM (active), respectively.

Regarding `C=C(c1nc2ccc(Cl)cc2[nH]c1=O)C(O)c1ccc(C(O)C(=O)c2nc3ccc(Cl)cc3[nH]c2=O)cc1` (stereo not drawn), the GI50 with A498 was > 100 µM (inactive); with DU-145 it was > 100 µM (inactive); in the experiment on EKVX it was > 100 µM (inactive); in the experiment on HCT-15 it was 74.5 µM; with HOP-92, > 100 µM (inactive); in the experiment with K562, 49 µM (inactive). Further, the GI50 with KM12 is 60.1 µM (inactive); with M14 it was > 100 µM (inactive); in the experiment with MDA-MB-231, > 100 µM (inactive); in the experiment on MDA-N it was > 100 µM (inactive); in the experiment with MOLT-4, 33.2 µM (inactive); with NCI-H460 it was > 100 µM (inactive). Further, the GI50 in the experiment with OVCAR-3 was > 100 µM (inactive); with OVCAR-5 it was > 100 µM (inactive); in the experiment with SF-295, > 100 µM (inactive); in the experiment with SK-MEL-2 it was > 100 µM (inactive); in the experiment with SK-MEL-5, > 95.1 µM (inactive); with SN12C it was > 100 µM (inactive). The GI50 is > 100 µM (inactive) with SW-620 and > 91 µM (inactive) in the experiment with UO-31.

Consider `CCOc1ccc(/N=C/c2ccnc3ccccc23)cc1`, for which the GI50 with A498 is > 100 µM (inactive); in the experiment with DU-145 it was 60.3 µM (inactive); in the experiment with EKVX, > 93.1 µM (inactive); in the experiment with HCT-15 it was 11.5 µM; in the experiment with HOP-92, 49.8 µM (inactive); with K562, 3.11 µM (inactive). In addition, the GI50 was 19.7 µM (inactive) with KM12; 30.3 µM (inactive) with M14; 20.7 µM (inactive) with MDA-MB-231; 30.1 µM (inactive) in the experiment with MDA-N; 5.9 µM (inactive) in the experiment on MOLT-4; 61.7 µM (inactive) in the experiment with NCI-H460. For the same compound, the GI50 in the experiment on OVCAR-3 was 31 µM (inactive); in the experiment on OVCAR-5, 99.3 µM (inactive); in the experiment on SF-295, 49.1 µM (inactive); in the experiment with SK-MEL-2 it was 61.8 µM (inactive); in the experiment with SK-MEL-5 it was 8.15 µM (inactive); in the experiment on SN12C, 29 µM (inactive). Moreover, the GI50 in the experiment on SW-620 is 4.56 µM (inactive); in the experiment with UO-31 it was 45.2 µM (inactive).

With `CCOC(=O)c1cnc2[nH]ccn2c1=O`, the GI50 is 5.48 µM (inactive) in the experiment on A498; > 10 µM (inactive) in the experiment with DU-145; > 10 µM (inactive) in the experiment on EKVX; over 10 µM with HCT-15; > 10 µM (inactive) in the experiment on HOP-92; > 10 µM (inactive) in the experiment on K562. Further, the GI50 in the experiment on KM12, in the experiment on M14, in the experiment with MDA-MB-231, in the experiment with MDA-N, in the experiment on MOLT-4 and in the experiment on NCI-H460 was > 10 µM (inactive) throughout. Besides, the GI50 in the experiment on OVCAR-3, in the experiment on OVCAR-5, with SF-295, in the experiment with SK-MEL-2, in the experiment on SK-MEL-5 and in the experiment with SN12C was > 10 µM (inactive) in each case. The GI50 in the experiment on SW-620 and in the experiment with UO-31 was > 10 µM (inactive) each time.

Turning to `C=C1C(=O)CC2C(=O)C(C)(O)CC/C=C(\C)C(=O)CC12` (stereo not drawn), the GI50 was > 86.9 µM (inactive) in the experiment on A498; 18.2 µM (inactive) with DU-145; 21.5 µM (inactive) in the experiment on EKVX; 13.6 µM in the experiment with HCT-15; 23.6 µM (inactive) in the experiment on HOP-92; 6.37 µM (inactive) with K562. Further, the GI50 is 32.6 µM (inactive) in the experiment with KM12; 16.4 µM (inactive) with M14; 26.7 µM (inactive) in the experiment on MDA-MB-231; 17.3 µM (inactive) with MDA-N; 4.14 µM (inactive) in the experiment with MOLT-4; > 100 µM (inactive) in the experiment on NCI-H460. Moreover, the GI50 with OVCAR-3 is 17 µM (inactive); in the experiment with OVCAR-5 it was 20.7 µM (inactive); in the experiment with SF-295 it was > 100 µM (inactive); in the experiment with SK-MEL-2, 28.8 µM (inactive); with SK-MEL-5 it was 14.7 µM (inactive); in the experiment on SN12C it was 15.2 µM (inactive). Also, the figures for the GI50 in the experiment on SW-620 and in the experiment on UO-31 were 6.37 µM (inactive) and 6.7 µM (inactive), respectively.

In the case of `CC(=O)Oc1ccc(/C=C/C(=O)OCCCOC(=O)/C=C/c2ccc(OC(C)=O)c(OC(C)=O)c2)cc1OC(C)=O`, the GI50 is > 100 µM (inactive) in the experiment with A498; > 100 µM (inactive) in the experiment on DU-145; > 100 µM (inactive) in the experiment with EKVX; over 100 µM in the experiment with HCT-15; > 100 µM (inactive) in the experiment on HOP-92; > 100 µM (inactive) with K562. For the same compound, the GI50 in the experiment with KM12, in the experiment on M14, with MDA-MB-231, in the experiment with MDA-N, in the experiment on MOLT-4 and in the experiment with NCI-H460 was > 100 µM (inactive) each time. Moreover, the GI50 is > 100 µM (inactive) in the experiment with OVCAR-3; > 100 µM (inactive) in the experiment with OVCAR-5; 77.4 µM (inactive) in the experiment on SF-295; > 100 µM (inactive) with SK-MEL-2; > 100 µM (inactive) in the experiment with SK-MEL-5; > 100 µM (inactive) with SN12C. Further, the GI50 with SW-620 and in the experiment on UO-31 was > 100 µM (inactive) each time.

Turning to `NC(=O)C1CCCN1C(=O)N(CCCl)N=O` (stereo not drawn), the GI50 in the experiment on A498 is > 100 µM (inactive); with DU-145, > 100 µM (inactive); with EKVX, > 100 µM (inactive); with HCT-15, over 100 µM; with HOP-92, > 100 µM (inactive); in the experiment on K562 it was > 100 µM (inactive). Moreover, the GI50 with KM12, in the experiment on M14, in the experiment with MDA-MB-231, in the experiment on MDA-N, in the experiment on MOLT-4 and in the experiment on NCI-H460 was > 100 µM (inactive) throughout. Also, the GI50 was > 100 µM (inactive) in the experiment with OVCAR-3; 54.5 µM (inactive) in the experiment with OVCAR-5; > 100 µM (inactive) with SF-295; > 100 µM (inactive) with SK-MEL-2; > 100 µM (inactive) in the experiment with SK-MEL-5; > 100 µM (inactive) in the experiment on SN12C. Further, the GI50 in the experiment on SW-620 and with UO-31 was > 100 µM (inactive) in each case.

As to `CCC1(O)C(=O)OCc2c1cc1n(c2=O)Cc2cc3ccc(C=O)cc3nc2-1` (stereo not drawn), the GI50 was 4.06 µM (inactive) in the experiment with A498; 0.466 µM (active) in the experiment with DU-145; 19.1 µM (inactive) in the experiment with EKVX; 6.08 µM in the experiment on HCT-15; 11.1 µM (inactive) in the experiment with HOP-92; 1.91 µM (inactive) with K562. In addition, the GI50 is > 86.5 µM (inactive) with KM12; 1.12 µM (active) with M14; 22.4 µM (inactive) in the experiment on MDA-MB-231; 5.56 µM (inactive) in the experiment on MDA-N; 0.132 µM (active) in the experiment with MOLT-4; 0.493 µM (active) in the experiment on NCI-H460. Besides, the GI50 is 4.51 µM (inactive) with OVCAR-3; 7.29 µM (inactive) in the experiment with OVCAR-5; 3.23 µM (inactive) in the experiment with SF-295; 13.4 µM (inactive) in the experiment with SK-MEL-2; 1.83 µM (inactive) in the experiment with SK-MEL-5; 0.387 µM (active) in the experiment on SN12C. Moreover, the GI50 was 1.03 µM (active) in the experiment on SW-620 and 1.83 µM (inactive) in the experiment with UO-31.
